Series [1] is described as follows: physchem. As to conditions: pH 7, water.
Series [2] can be described thus: Stability in aqueous solution. Format: physicochemical.

A value given as a limit tells only on which side of the number the result lay.

What is called solubility is the concentration that dissolves in the medium under given conditions. A low value points to a poorly soluble substance. Turning to `CS(=O)(=O)c1ccc([C@@H](O)[C@@H](CF)NC(=O)C(Cl)Cl)cc1` [Florfenicol, D-(threo)-1-p-methylsulfonyl phenyl-2-dichloroacetamido-3-fluoro-1-propanol], in series [1], the solubility was ≤ 1300 µg/mL. In addition, in series [2], the “hydrolysis when dissolved in water” value is on record as “readily hydrolyses”.

The values above are taken from patent US20060223889A1 (priority 2003, published 2006).
